The source of these data is patent publication US20220183282A1, “Fatty Acid Derivatives For Improving The Effect Of Agrochemical Actives” (priority 2019, published 2022).

Structures are written as SMILES.

Series [1] has as its system apple leaf cuticles. The series can be described thus: Penetration of Imidacloprid through isolated apple leaf cuticles in the presence of test substances. The conditions noted are these: for Mean penetration for Imidacloprid after time: Imidacloprid 0.5 g/L in spray liquid. An excerpt:
(§1) Surfactants can affect the absorption of (active) ingredients through membranes such as skin, films or the plant cuticle. As a “finite-dose” application, it is known for the single administration or application of a solution, cream, gel etc. to a membrane that the absorption of active ingredient can be influenced by some additives such as surfactants even after wetting.
(§2) The principle of the method has been published and described in detail e.g. in WO-A-2005/194844 or WO2017211572 A1). The leaf cuticles were enzymatically isolated in the manner described in the literature from apple leaves of orchard trees in a commercial stone fruit growing facility near Frankfurt am Main in 2017. The stomata-free cuticles were first dried under air and then installed into stainless steel diffusion cells. After application to the original upper side of the leaf and evaporation of the test liquid, i.e. of the spray liquids of the active ingredients with or without the inventive substances or comparative compositions, the diffusion cells were transferred into thermostated blocks and charged with aqueous liquid. The water used to make up the aqueous test liquids was local tap water (of known composition). At regular intervals, aliquot samples were taken and the proportion of active ingredient penetrated was determined by HPLC or alternatively by radio-chemical method where radio-labelled active ingredient was used as tracer to determine the concentration. During the experiment, the temperature in the system (block, diffusion cells, liquids, etc.) and the air humidity above the spray deposit on the cuticle were controlled. In the experiment, relative air humidity was constant throughout at 56% relative air humidity (air over supersaturated calcium nitrate) at a constant 10° C. or 25° C. The analytical determination by means of HPLC (1290 Infinity, Agilent) was effected thereafter with a Kinetex column 30×2, 1 mm, 2.6μ C18 100 A (Phenomenex), taking a 20 μL aliquot as injection volume at the specified times. In each case, the geometric mean values of the penetration for intact membranes at the mean measurement times are given.

The test system of series [2] is apple leaf cuticles. Nature of the series: Penetration of Mesotrione through isolated apple leaf cuticles in the presence of test substances.
Source text: as §1
as §2, with “In each case, the geometric mean values of the penetration for intact membranes at the mean measurement times are given.” left out

For `CCCCCCCCC(=O)OCCOCCOCCOCCOCCOCCOC` [A1, Pelargonic acid 6 EO ester methyl ether], the “Mean penetration for Imidacloprid after time” value in series [1] (test substance 0.3 g/L, 1 day) worked out at 2.8%; in series [1] (test substance 0.3 g/L, 4 days), 3.8%; in series [1] (test substance 1.0 g/L, 1 day), 31.7%; in series [1] (test substance 1.0 g/L, 4 days) it was 38.2%. In addition, the “uptake of the agrochemical active (Imidacloprid), in words” value in series [1] (summary of Table 8) is listed as “strongly increases the uptake”. In series [2], the “uptake of the active ingredient (Mesotrione), in words” value was “increases the uptake”.
